This is an account of results in patent US20140135310A1, “SULPHONAMIDE DERIVATIVES OF ALICYCLIC AMINES FOR THE TREATMENT OF CENTRAL NERVOUS SYSTEM DISEASES” (Adamed Sp. z o.o., priority 2011, published 2014).

Molecules are shown by their SMILES.

Assay [1] deals with T1, α2C adrenergic receptors (Homo sapiens, UniProt P18825).
T1 construct: expressed in transfected cells; host or cells: CHO cells
T1 sequence (P18825 1-462): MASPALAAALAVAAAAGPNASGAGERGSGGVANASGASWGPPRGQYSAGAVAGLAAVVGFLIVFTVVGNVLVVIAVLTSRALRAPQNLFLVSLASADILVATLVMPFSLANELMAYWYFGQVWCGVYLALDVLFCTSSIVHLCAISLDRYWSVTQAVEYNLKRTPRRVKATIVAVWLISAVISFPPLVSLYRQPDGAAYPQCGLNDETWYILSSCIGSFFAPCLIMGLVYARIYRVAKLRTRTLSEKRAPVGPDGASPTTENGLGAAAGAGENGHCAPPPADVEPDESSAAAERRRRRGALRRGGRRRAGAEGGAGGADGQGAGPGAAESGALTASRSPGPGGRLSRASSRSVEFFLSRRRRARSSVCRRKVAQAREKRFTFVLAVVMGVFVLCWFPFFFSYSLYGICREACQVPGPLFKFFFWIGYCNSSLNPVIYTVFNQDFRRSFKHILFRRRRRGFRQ
Put plainly: Radioligand binding assay, adrenergic α2C receptors. The following applies: test compound 1×10^−6 M. An outline of the steps:
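Competitive radioligand binding at human α2C receptors, with scintillation counting. Nonspecific binding defined with excess unlabelled ligand; results given as % inhibition of control specific binding. IC50 from Hill-equation fits of competition curves; Ki via Cheng-Prusoff using radioligand concentration and Scatchard-derived KD.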

The target of assay [2] is T2, 5-HT6 receptor (Homo sapiens, UniProt P50406).
T2 construct: purchased PerkinElmer
T2 sequence (P50406 whole entry): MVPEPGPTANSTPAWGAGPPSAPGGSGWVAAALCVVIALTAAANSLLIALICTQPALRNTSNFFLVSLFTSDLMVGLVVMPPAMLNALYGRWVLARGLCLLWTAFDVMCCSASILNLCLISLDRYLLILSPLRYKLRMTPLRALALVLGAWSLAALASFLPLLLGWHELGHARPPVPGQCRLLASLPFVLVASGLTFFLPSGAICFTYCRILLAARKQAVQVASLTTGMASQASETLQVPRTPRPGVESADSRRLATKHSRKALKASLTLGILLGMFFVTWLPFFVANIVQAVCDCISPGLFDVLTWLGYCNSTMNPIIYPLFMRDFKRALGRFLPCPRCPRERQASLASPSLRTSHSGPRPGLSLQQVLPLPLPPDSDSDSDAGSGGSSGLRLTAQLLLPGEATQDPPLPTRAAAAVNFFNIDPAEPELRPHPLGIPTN
Put plainly: Radioligand binding assay, serotoninergic 5-HT6 receptors. The following applies: for inhibition at 1 µM: binding assay result in %, Table 5a; for Ki: read-out: Inhibition constants Ki, 5-HT6. An outline of the steps:
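Values are Ki from Cheng–Prusoff, taking IC50 from Hill nonlinear regression of competition curves and KD from a Scatchard plot. Specific binding was total minus binding with excess unlabelled ligand. Radioligand displacement was detected by scintillation counting, and data were also reported as percent of control specific binding.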

For assay [3], the target named is T3, receptors D4.4 (Homo sapiens, UniProt P21917).
T3 sequence (P21917 1-419): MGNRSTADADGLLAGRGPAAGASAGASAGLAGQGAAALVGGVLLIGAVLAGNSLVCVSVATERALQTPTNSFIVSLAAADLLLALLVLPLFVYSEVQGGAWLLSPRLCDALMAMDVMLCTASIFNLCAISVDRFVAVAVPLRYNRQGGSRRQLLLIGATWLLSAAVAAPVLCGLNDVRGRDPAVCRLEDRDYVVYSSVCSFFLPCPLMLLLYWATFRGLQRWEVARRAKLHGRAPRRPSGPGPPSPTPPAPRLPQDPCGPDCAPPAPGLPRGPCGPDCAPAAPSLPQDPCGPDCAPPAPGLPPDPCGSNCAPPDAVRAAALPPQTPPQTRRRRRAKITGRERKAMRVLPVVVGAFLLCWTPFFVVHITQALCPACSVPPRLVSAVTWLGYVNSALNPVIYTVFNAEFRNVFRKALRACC
Put plainly: Radioligand binding assay, dopaminergic D4 (D4.4) receptors. The following applies: test compound 1×10^−6 M. An outline of the steps: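 Scintillation read-out. Specific = total − nonspecific (excess cold ligand). Data as % of control specific binding / % inhibition; IC50 by Hill fit; Ki = IC50/(1+L/KD), KD from Scatchard plot.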

Assay [4] has as its target T4, 5-HT2A receptor (Homo sapiens, UniProt P28223).
T4 construct: purchased PerkinElmer
Briefly: Radioligand binding assay, serotoninergic 5-HT2A receptors. The following applies: for inhibition at 1 µM: binding assay result in %, Table 5a; for Ki: read-out: Inhibition constants Ki, 5-HT2A. An outline of the steps:
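Competition curves from scintillation-counted specific binding (total minus binding with excess unlabelled ligand) were Hill-fitted to give IC50, converted to Ki via Cheng-Prusoff using Scatchard-derived Kd.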

The target in assay [5] is T5, 5-HT7 receptor (Homo sapiens, UniProt P34969).
T5 construct: purchased PerkinElmer
T5 sequence (P34969 whole entry): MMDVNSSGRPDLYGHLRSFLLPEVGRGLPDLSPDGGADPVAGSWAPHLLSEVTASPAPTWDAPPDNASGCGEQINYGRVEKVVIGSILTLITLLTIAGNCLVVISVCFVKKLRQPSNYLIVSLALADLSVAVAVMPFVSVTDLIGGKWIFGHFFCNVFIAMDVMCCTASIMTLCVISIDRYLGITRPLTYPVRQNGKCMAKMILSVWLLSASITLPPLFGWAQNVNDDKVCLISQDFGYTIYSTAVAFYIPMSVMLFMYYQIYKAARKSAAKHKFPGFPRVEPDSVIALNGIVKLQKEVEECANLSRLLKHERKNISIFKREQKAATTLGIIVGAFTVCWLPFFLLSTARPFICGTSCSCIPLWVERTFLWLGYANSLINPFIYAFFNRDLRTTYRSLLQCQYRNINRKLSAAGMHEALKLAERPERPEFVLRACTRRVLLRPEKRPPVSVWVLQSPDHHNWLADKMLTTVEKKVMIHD
Briefly: Radioligand binding assay, serotoninergic 5-HT7 receptors. The following applies: binding assay result in %, Table 5a. An outline of the steps:
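Ki values used the Cheng–Prusoff equation, with KD from Scatchard analysis, applied to IC50 from Hill fits of human 5-HT7 radioligand competition curves. Bound radioligand was counted by scintillation, and excess unlabelled ligand set the non-specific binding.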

Assay [6] addresses T6, serotonin transporter (SERT) (Homo sapiens, UniProt P31645).
T6 construct: expressed in transfected cells; host or cells: CHO cells
Put plainly: Radioligand binding assay, serotonin transporter (SERT). The following applies: for inhibition at 1 µM: binding assay, test compound 1×10^−6 M; for Ki: read-out: Inhibition constants Ki for SERT, SERT. An outline of the steps:
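Values are derived from competition curves fitted by the Hill equation to give IC50, then converted to Ki by Cheng-Prusoff with radioligand Kd from Scatchard analysis. Specific binding equals total minus non-specific (excess cold ligand), counted by scintillation, and is also expressed as percent inhibition of control.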

In assay [7] the target is T7, 5-HT1A receptor (rat hippocampus) (Rattus norvegicus, UniProt P19327).
T7 construct: hippocampus; from tissue; host or cells: rat hippocampus
T7 sequence (P19327 1-422): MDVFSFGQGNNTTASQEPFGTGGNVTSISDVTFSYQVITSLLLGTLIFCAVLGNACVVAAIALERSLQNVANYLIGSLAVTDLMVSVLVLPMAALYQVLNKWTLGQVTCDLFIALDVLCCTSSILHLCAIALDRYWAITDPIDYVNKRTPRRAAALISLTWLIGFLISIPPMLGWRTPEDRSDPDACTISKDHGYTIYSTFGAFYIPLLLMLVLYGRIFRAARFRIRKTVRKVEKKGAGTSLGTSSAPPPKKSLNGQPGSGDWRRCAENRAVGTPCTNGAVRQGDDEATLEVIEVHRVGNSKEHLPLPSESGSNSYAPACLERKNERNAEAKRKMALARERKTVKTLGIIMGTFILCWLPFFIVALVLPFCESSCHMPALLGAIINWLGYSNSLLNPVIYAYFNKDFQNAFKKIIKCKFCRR
Briefly: Radioligand binding assay, serotoninergic 5-HT1A receptors. The following applies: binding assay result in %, Table 5a.

T4 sequence (P28223 whole entry): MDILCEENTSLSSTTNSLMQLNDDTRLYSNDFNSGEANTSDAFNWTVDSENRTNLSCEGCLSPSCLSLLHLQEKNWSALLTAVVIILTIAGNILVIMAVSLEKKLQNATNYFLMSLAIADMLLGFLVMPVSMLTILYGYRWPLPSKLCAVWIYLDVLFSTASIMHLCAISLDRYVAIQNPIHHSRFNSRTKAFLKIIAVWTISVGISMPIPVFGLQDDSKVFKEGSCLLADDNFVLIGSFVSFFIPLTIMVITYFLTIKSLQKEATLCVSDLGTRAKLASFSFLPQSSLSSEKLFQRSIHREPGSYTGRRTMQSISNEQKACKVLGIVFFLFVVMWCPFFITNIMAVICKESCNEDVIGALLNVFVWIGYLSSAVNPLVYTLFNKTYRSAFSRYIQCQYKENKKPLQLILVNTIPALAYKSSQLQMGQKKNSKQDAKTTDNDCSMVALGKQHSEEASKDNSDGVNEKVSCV
T6 sequence (P31645 whole entry): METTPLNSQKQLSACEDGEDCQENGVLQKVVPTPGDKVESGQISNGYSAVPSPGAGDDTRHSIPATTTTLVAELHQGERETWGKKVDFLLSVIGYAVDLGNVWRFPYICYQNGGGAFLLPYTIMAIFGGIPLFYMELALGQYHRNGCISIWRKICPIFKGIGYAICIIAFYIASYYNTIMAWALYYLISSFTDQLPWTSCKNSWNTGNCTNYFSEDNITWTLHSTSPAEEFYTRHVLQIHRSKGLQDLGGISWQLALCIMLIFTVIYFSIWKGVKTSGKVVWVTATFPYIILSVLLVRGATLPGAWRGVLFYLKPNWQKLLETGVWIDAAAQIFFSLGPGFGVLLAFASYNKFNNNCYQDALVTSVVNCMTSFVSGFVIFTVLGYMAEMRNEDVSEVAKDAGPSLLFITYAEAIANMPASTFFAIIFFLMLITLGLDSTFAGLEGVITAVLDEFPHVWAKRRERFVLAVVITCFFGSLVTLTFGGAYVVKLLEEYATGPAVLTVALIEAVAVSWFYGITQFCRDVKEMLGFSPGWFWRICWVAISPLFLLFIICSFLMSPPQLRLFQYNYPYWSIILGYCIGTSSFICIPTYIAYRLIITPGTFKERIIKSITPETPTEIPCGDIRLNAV

With `Cc1cccc(S(=O)(=O)NC2CCN(CCCc3c[nH]c4ccc(Cl)cc34)C2)c1` (stereo not drawn) [Compound 86, N-[1-[3-(5-chloro-1H-indol-3-yl)propyl]pyrrolidin-3-yl]-3-methyl-benzenesulphonamide], the inhibition at 1 µM was 106% in assay [1]; 98% in assay [2]; 88% in assay [3]; 97% in assay [4]; 98% in assay [5]; 105% in assay [6]. The inhibition at 1 µM in assay [7] is 101%. The values for the Ki in assay [2] and in assay [6] were 13 nM and 1.1 nM, respectively.

For the compound `CC1(C)Cc2cccc(OCCN3CCC(NS(=O)(=O)c4cccc(O)c4)C3)c2O1` (stereo not drawn) [Compound 107, N-[1-[2-[(2,2-Dimethyl-3H-benzofuran-7-yl)oxy]ethyl]pyrrolidin-3-yl]-3-hydroxybenzenesulphonamide], the inhibition at 1 µM in assay [1] was 77%; in assay [2], 39%; in assay [3], 83%; in assay [4] it was 97%; in assay [5], 84%; in assay [6], -4%. Moreover, the inhibition at 1 µM in assay [7] is 100%.

As to `CC1(C)Cc2cccc(OCCN3CCC(NS(=O)(=O)c4ccc5ccccc5c4)C3)c2O1` (stereo not drawn) [Compound 108, N-[1-[2-[(2,2-Dimethyl-3H-benzofuran-7-yl)oxy]ethyl]pyrrolidin-3-yl]naphthalene-2-sulphonamide], the inhibition at 1 µM in assay [1] was 83%; in assay [2], 59%; in assay [3], 85%; in assay [4] it was 98%; in assay [5], 98%; in assay [6] it was 36%. In addition, in assay [7], the inhibition at 1 µM amounted to 98%.

Take `O=S(=O)(NC1CCN(CCOc2cccc3ccccc23)C1)c1ccc2ccccc2c1` (stereo not drawn) [Compound 116, N-[1-[2-(1-Naphthyloxy)ethyl]pyrrolidin-3-yl]naphthalene-2-sulphonamide]: the inhibition at 1 µM in assay [1] is 93%; in assay [2], 95%; in assay [3] it was 64%; in assay [4], 96%; in assay [5] it was -49%; in assay [6], 95%. Further, in assay [7], the inhibition at 1 µM turned out to be 99%. The results for the Ki in assay [2] and in assay [6] were 71 nM and 31 nM, respectively.

`O=S(=O)(NCC1CN(CCOc2cccc3ccccc23)C1)c1ccc2ccccc2c1` [Compound 122, N-[[1-[2-(1-Naphthyloxy)ethyl]azetidin-3-yl]methyl]naphthalene-2-sulphonamide]: the inhibition at 1 µM in assay [1] came to 101%; in assay [2], 99%; in assay [3], 63%; in assay [4] it was 83%; in assay [5], 100%; in assay [6] it was 98%. Besides, the inhibition at 1 µM in assay [7] is 99%. For the same compound, the Ki in assay [2] was determined as 13 nM; in assay [6], 17 nM.

With `O=S(=O)(NCC1CCN(CCOc2cccc3ccccc23)C1)c1ccc2ccccc2c1` (stereo not drawn) [Compound 124, N-[[1-[2-(1-Naphthyloxy)ethyl]pyrrolidin-3-yl]methyl]naphthalene-2-sulphonamide], the inhibition at 1 µM in assay [1] worked out at 95%; in assay [2] it was 99%; in assay [3], 54%; in assay [4], 87%; in assay [5], 99%; in assay [6], 100%. Besides, the inhibition at 1 µM in assay [7] stood at 99%.

For `Cc1c(S(=O)(=O)NCC2CN(CCCc3noc4cc(F)ccc34)C2)sc2ccc(F)cc12` [Compound 130, 5-Fluoro-N-[[1-[3-(6-fluoro-1,2-benzoxazol-3-yl)propyl]azetidin-3-yl]methyl]-3-methyl-benzothiophene-2-sulphonamide], the inhibition at 1 µM in assay [1] turned out to be 88%; in assay [2] it was 98%; in assay [3] it was 67%; in assay [4] it was 100%; in assay [5], 98%; in assay [6] it was 64%. The inhibition at 1 µM in assay [7] was determined as 85%. For the same compound, the Ki in assay [2] was 9.7 nM; in assay [4] it was 4.2 nM.

For the compound `Cc1c(S(=O)(=O)NCC2CN(CCCc3noc4cc(F)ccc34)C2)sc2ccc(Cl)cc12` [Compound 131, 5-Chloro-N-[[1-[3-(6-fluoro-1,2-benzoxazol-3-yl)propyl]azetidin-3-yl]-methyl]-3-methyl-benzothiophene-2-sulphonamide], the inhibition at 1 µM in assay [1] stood at 92%; in assay [2] it was 97%; in assay [3], 50%; in assay [4], 99%; in assay [5], 95%; in assay [6] it was 55%. For the same compound, the inhibition at 1 µM in assay [7] was 87%. Moreover, the Ki was found to be 9 nM in assay [2] and 5.5 nM in assay [4].

In the case of `O=S(=O)(NCC1CN(CCCc2noc3cc(F)ccc23)C1)c1ccc2scnc2c1` [Compound 132, N-[[1-[3-(6-Fluoro-1,2-benzoxazol-3-yl)propyl]azetidin-3-yl]methyl]-1,3-benzothiazole-5-sulphonamide], the inhibition at 1 µM came out at 73% in assay [1]; 69% in assay [2]; 39% in assay [3]; 97% in assay [4]; 94% in assay [5]; 20% in assay [6]. Also, in assay [7], the inhibition at 1 µM worked out at 57%.

On to `O=S(=O)(NCC1CN(CCCc2noc3cc(F)ccc23)C1)c1cccc2ccccc12` [Compound 133, N-[[1-[3-(6-Fluoro-1,2-benzoxazol-3-yl)propyl]azetidin-3-yl]methyl]-naphthalene-1-sulphonamide], for which the inhibition at 1 µM in assay [1] was determined as 91%; in assay [2], 92%; in assay [3], 88%; in assay [4], 95%; in assay [5], 97%; in assay [6], 42%. Besides, in assay [7], the inhibition at 1 µM is 52%.

Regarding `O=S(=O)(NCC1CN(CCCc2noc3cc(F)ccc23)C1)c1ccc2ccccc2c1` [Compound 134, N-[[1-[3-(6-Fluoro-1,2-benzoxazol-3-yl)propyl]azetidin-3-yl]methyl]-naphthalene-2-sulphonamide], the inhibition at 1 µM came to 87% in assay [1]; 94% in assay [2]; 77% in assay [3]; 99% in assay [4]; 95% in assay [5]; 47% in assay [6]. Moreover, in assay [7], the inhibition at 1 µM was 73%.

One may read the inhibition as the relative decrease from the control value, in per cent. The term Ki denotes a measure of affinity in units of concentration, obtained from inhibition or displacement.
